Source: patent publication US20210290648A1, “Potentiation of B-Lactam Antibiotics and B-Lactam/B-Lactamase Inhibitor Combinations Against Multidrug and Extensively Drug-Resistant Pseudomonas Aeruginosa Using Non-Ribosomal Tobramycin-Cyclam Conjugates” (University of Manitoba, priority 2018, published 2021)

Columns and labels:
WT P. aeruginosa PAO1 = experiment: Checkerboard combination study / MIC; assay type: cell-based, Pseudomonas aeruginosa; conditions: for MIC: Pseudomonas aeruginosa, PAO1, 18 h, read-out: MIC alone; for FICI in the presence of ≤10 μM of 1: antibiotic + compound 1; for MIC of Antibiotics in the presence of ≤10 μM of 1: antibiotic + compound 1 ≤10 μM; for FICI in the presence of ≤10 μM of 2: antibiotic + compound 2; for MIC of Antibiotics in the presence of ≤10 μM of 2: antibiotic + compound 2 ≤10 μM; for FICI in the presence of ≤10 μM of 3: antibiotic + compound 3; for MIC of Antibiotics in the presence of ≤10 μM of 3: antibiotic + compound 3 ≤10 μM; for MIC of antibiotic alone in PAO1: PAO1 wild-type (Table 4)
PA 100036 = experiment: Checkerboard combination study / MIC; assay type: cell-based, Pseudomonas aeruginosa; conditions: for MICCombination (antibiotic): MIC of antibiotic combined with compound 2; for FICI: antibiotic + compound 2; for MICAntibiotic: antibiotic alone; for FICAntibiotic: with compound 2
PA 101885 = experiment: Checkerboard combination study / MIC; assay type: cell-based, Pseudomonas aeruginosa; conditions: for MICCombination (antibiotic): MIC of antibiotic combined with compound 2; for FICI: antibiotic + compound 2; for MICAntibiotic: antibiotic alone; for FICAntibiotic: with compound 2
PA 259 = experiment: Checkerboard combination study / MIC; assay type: cell-based, Pseudomonas aeruginosa; conditions: for MICAntibiotic: antibiotic alone
PA 260 = experiment: Checkerboard combination study / MIC; assay type: cell-based, Pseudomonas aeruginosa; conditions: for MICCombination (antibiotic): MIC of antibiotic combined with compound 2; for FICI: antibiotic + compound 2; for MICAntibiotic: antibiotic alone; for FICAntibiotic: with compound 2
PA 262 = experiment: Checkerboard combination study / MIC; assay type: cell-based, Pseudomonas aeruginosa; conditions: for MICCombination (antibiotic): MIC of antibiotic combined with compound 2; for FICI: antibiotic + compound 2; for MICAntibiotic: antibiotic alone; for FICAntibiotic: with compound 2
PA 264 = experiment: Checkerboard combination study / MIC; assay type: cell-based, Pseudomonas aeruginosa; conditions: for MICCombination (antibiotic): MIC of antibiotic combined with compound 2; for FICI: antibiotic + compound 2; for MICAntibiotic: antibiotic alone; for FICAntibiotic: with compound 2
PA 91433 = experiment: Checkerboard combination study / MIC; assay type: cell-based, Pseudomonas aeruginosa; conditions: for MICCombination (antibiotic): MIC of antibiotic combined with compound 2; for MICCombination (antibiotic) / FICI / MICAntibiotic / FICAntibiotic: PA 91433; for FICI: antibiotic + compound 2; for MICAntibiotic: antibiotic alone; for FICAntibiotic: with compound 2
PA 101243 = experiment: Checkerboard combination study / MIC; assay type: cell-based, Pseudomonas aeruginosa; conditions: for MICCombination (antibiotic): MIC of antibiotic combined with compound 2; for MICCombination (antibiotic) / FICI / MICAntibiotic / FICAntibiotic: PA 101243; for FICI: antibiotic + compound 2; for MICAntibiotic: antibiotic alone; for FICAntibiotic: with compound 2
PA 114228 = experiment: Checkerboard combination study / MIC; assay type: cell-based, Pseudomonas aeruginosa; conditions: for MICCombination (antibiotic): MIC of antibiotic combined with compound 2; for FICI: antibiotic + compound 2; for MICAntibiotic: antibiotic alone
PAO200 = assay type: cell-based, Pseudomonas aeruginosa; conditions: for MIC of antibiotic alone in PAO200: PAO200 efflux-deficient
Source text: (§1) PAO200 is a tnexA-rnexB-oprM deletion strain while PAO750 lacks five important RND pumps (McxAB-OprM, MexCD-OprJ, MexEF-OprN, Mex JK, and MexXY) and the outer membrane protein OpmH (46, 47). Some of these pumps are homologues of broad substrate specificities that extrude different classes of antimicrobial agents and confer resistance on P. aeruginosa (48).
(§2) Antimicrobial Susceptibility Assay. The in vitro antimicrobial activity of all compounds/antibiotics against a panel of bacteria was evaluated by microbroth dilution method in accordance with the Clinical and Laboratory Standards Institute (CLSI) guidelines. Overnight grown bacterial cultures were diluted in saline to achieve a 0.5 McFarland turbidity, followed by 1:50 dilution in Mueller-Hinton broth (MHB) for inoculation to a final concentration of approximately 5×10^5CFU/mL. The antimicrobial agents were 2-fold serially diluted in MHB in a 96-well plate and incubated at 37° C. with equal volumes of inoculum for 18 h. The lowest concentration that prevented the visible growth of bacteria was defined as the MIC for each antimicrobial agent. The broth with or without bacterial cells was used as positive or negative control, respectively.
(§3) Checkerboard Assay. Combination studies with different antibiotics were performed in 96-well plates as previously described (22). Briefly, the antibiotic of interest was serially diluted in MHB along the abscissa while the adjuvant (newly synthesized conjugates) was serially diluted in MHB along the ordinate. This creates a 10×7 matrix wherein each well consists of a combination of different antibiotic and adjuvant concentrations. Overnight grown bacterial cultures were diluted in saline to achieve a 0.5 McFarland turbidity, followed by 1:50 dilution in Mueller-Hinton broth (MHB) for inoculation to a final concentration of approximately 5×10^5CFU/mL. Equal volume of this bacterial culture was then added to each well and incubated at 37° C. for 18 h. After incubation, the plates were read on EMax® Plus microplate reader (Molecular Devices, Sunnyvale, Calif., USA) at 590 nm. MIC was recorded as wells with the lowest concentration of drugs with no bacterial growth. The fractional inhibitory concentration (FIC) for each antibiotic was calculated by dividing the MIC of the antibiotic in the presence of adjuvant by the MIC of the antibiotic alone. Similarly, the FIC of adjuvant was calculated by dividing the MIC of the adjuvant in the presence of antibiotic by the MIC of the adjuvant alone. FIC index is the sum of both FICs. FIC indices of <0.5 were deemed synergistic; 0.5-4, no interaction; and >4, antagonistic.

PAO750 = assay type: cell-based, Pseudomonas aeruginosa; conditions: for MIC of antibiotic alone in PAO750: PAO750 efflux-deficient
Source text: as §1, §2, §3

[1] = system: MDR/XDR P. aeruginosa clinical isolates; experiment: MIC and checkerboard, panel of clinical isolates; assay type: cell-based, Pseudomonas aeruginosa; conditions: antibiotic + compound 2 (8.7 μM); resistant P. aeruginosa isolates
[2] = system: Galleria mellonella larvae; experiment: Galleria mellonella tolerability study; conditions: 100 mg/kg; positive control
Protocol: In vitro and in vivo discordances have been observed in antimicrobial chemotherapy, thus, therapeutic efficacy may not necessarily be reliably extrapolated based on in vitro data alone. […] Colistin (100 mg/kg), an antibiotic well known for its toxicity towards eukaryotes, served as a positive control for this experiment while PBS served as negative control. […] Survivability was scored for a total of 4 days.
In vivo larvae-infection model. In vivo synergistic effects were determined using Galleria mellonella infection model, as previously described (20). Briefly, worms were purchased from The Worm Lady® Live Feeder (ON, Canada), stored in their natural habitat at 16° C., and used within 10 days of delivery. The worms (average weight of 250 mg) were used for tolerability and efficacy studies. Tolerability study was performed by injecting 10 μL of antimicrobial agents only at concentrations equivalent to 100 mg/kg or 200 mg/kg. The worms (ten in each group) were incubated at 37° C. and monitored for 96 h. […] Overnight grown culture of respective MDR P. aeruginosa isolate was standardized to 0.5 McFarland standard and diluted in PBS to a final concentration of […]. 10 μL of this solution (5 CFU) was injected into each worm and incubated for 3 h at 37° C. […] Worms treated with 10 μL PBS or high concentrations of test antibiotics served as negative and positive control, respectively. The worms were incubated at 37° C. in Petri dishes lined with filter paper and scored for survivability every 6 h for up to 48 h. This experiment was repeated to give a total of thirty worms (n=30) in each case. Survival data curves were plotted using Kaplan-Meier survival analysis.

[3] = antibiotic alone, WT PAO1 (Table 2)

## C[C@@H](O)[C@H]1C(=O)N2C(C(=O)O)=C(S[C@@H]3CN[C@H](CNS(N)(=O)=O)C3)[C@H](C)[C@H]12 [Doripenem]
WT P. aeruginosa PAO1; + compound 2 ≤8.7 μM, PAO1
  MIC of antibiotic + Compound 2 in PAO1: 0.5 µg/mL
  fold change of MIC + Compound 2 in PAO1: 2
WT P. aeruginosa PAO1; [3]
  MIC: 1 µg/mL
WT P. aeruginosa PAO1; WT PAO1
  FICI in the presence of ≤10 μM of 1: 0.51
  MIC of Antibiotics in the presence of ≤10 μM of 1: 0.5 µg/mL
  FICI in the presence of ≤10 μM of 2: 0.50
  MIC of Antibiotics in the presence of ≤10 μM of 2: 0.5 µg/mL
  FICI in the presence of ≤10 μM of 3: 0.50
  MIC of Antibiotics in the presence of ≤10 μM of 3: 0.5 µg/mL
WT P. aeruginosa PAO1; antibiotic alone
  MIC of antibiotic alone in PAO1: 1 µg/mL
PA 100036
  MICCombination (antibiotic): 8 µg/mL
  FICI: <0.56
  MICAntibiotic: 16 µg/mL
  FICAntibiotic: 0.500
PA 101885
  MICCombination (antibiotic): 1 µg/mL
  FICI: <0.27
  MICAntibiotic: 4 µg/mL
  FICAntibiotic: 0.250
PA 259
  MICAntibiotic: >1024 µg/mL
PA 260
  MICCombination (antibiotic): 8 µg/mL
  FICI: <0.53
  MICAntibiotic: 16 µg/mL
  FICAntibiotic: 0.500
PA 262
  MICCombination (antibiotic): 4 µg/mL
  FICI: <0.31
  MICAntibiotic: 16 µg/mL
  FICAntibiotic: 0.250
PA 264
  MICCombination (antibiotic): 8 µg/mL
  FICI: <0.51
  MICAntibiotic: 16 µg/mL
  FICAntibiotic: 0.500
PA 91433
  MICCombination (antibiotic): 1 µg/mL
  FICI: <0.09
  MICAntibiotic: 16 µg/mL
  FICAntibiotic: 0.063
PA 101243
  MICCombination (antibiotic): 8 µg/mL
  FICI: <0.50
  MICAntibiotic: 16 µg/mL
  FICAntibiotic: 0.500
PA 114228
  MICCombination (antibiotic): 1 µg/mL
  FICI: <0.14
  MICAntibiotic: 8 µg/mL
PA 114228; with compound 2
  FICAntibiotic: 0.125
PAO200; + compound 2 ≤8.7 μM, PAO200
  MIC of antibiotic + Compound 2 in PAO200: 0.25 µg/mL
  fold change of MIC + Compound 2 in PAO200: 4
PAO200
  MIC of antibiotic alone in PAO200: 1 µg/mL
PAO750; + compound 2 ≤8.7 μM, PAO750
  MIC of antibiotic + Compound 2 in PAO750: 0.25 µg/mL
  fold change of MIC + Compound 2 in PAO750: 4
PAO750
  MIC of antibiotic alone in PAO750: 1 µg/mL
[1]
  resistant isolates reaching CLSI clinical breakpoint: three out of nine

## CO/N=C(\C(=O)N[C@@H]1C(=O)N2C(C(=O)O)=C(COC(C)=O)CS[C@H]12)c1csc(N)n1 [Cefotaxime]
WT P. aeruginosa PAO1; + compound 2 ≤8.7 μM, PAO1
  MIC of antibiotic + Compound 2 in PAO1: 4 (4) μg/ml
WT P. aeruginosa PAO1; [3]
  MIC: 16 µg/mL
WT P. aeruginosa PAO1; WT PAO1
  FICI in the presence of ≤10 μM of 1: 0.13
  MIC of Antibiotics in the presence of ≤10 μM of 1: 2 µg/mL
  FICI in the presence of ≤10 μM of 2: 0.26
  MIC of Antibiotics in the presence of ≤10 μM of 2: 4 µg/mL
  FICI in the presence of ≤10 μM of 3: 0.27
  MIC of Antibiotics in the presence of ≤10 μM of 3: 4 µg/mL
WT P. aeruginosa PAO1; antibiotic alone
  MIC of antibiotic alone in PAO1: 16 µg/mL
PA 100036
  MICCombination (antibiotic): 8 µg/mL
  FICI: <0.31
  MICAntibiotic: 32 µg/mL
  FICAntibiotic: 0.250
PA 101885
  MICCombination (antibiotic): 8 µg/mL
  FICI: <0.13
  MICAntibiotic: 128 µg/mL
  FICAntibiotic: 0.063
PA 259; MIC of antibiotic combined with compound 2
  MICCombination (antibiotic): 512 µg/mL
PA 259; antibiotic + compound 2
  FICI: <0.31
PA 259
  MICAntibiotic: 2048 µg/mL
PA 259; with compound 2
  FICAntibiotic: 0.250
PA 260
  MICCombination (antibiotic): 512 µg/mL
  FICI: <0.53
  MICAntibiotic: 1024 µg/mL
  FICAntibiotic: 0.500
PA 262
  MICCombination (antibiotic): 32 µg/mL
  FICI: <0.31
  MICAntibiotic: 128 µg/mL
  FICAntibiotic: 0.250
PA 264
  MICCombination (antibiotic): 512 µg/mL
  FICI: <0.31
  MICAntibiotic: 2048 µg/mL
  FICAntibiotic: 0.250
PA 91433
  MICCombination (antibiotic): 8 µg/mL
  FICI: <0.07
  MICAntibiotic: 1024 µg/mL
  FICAntibiotic: 0.008
PA 101243
  MICCombination (antibiotic): 128 µg/mL
  FICI: <0.50
  MICAntibiotic: 256 µg/mL
  FICAntibiotic: 0.500
PA 114228
  MICCombination (antibiotic): 16 µg/mL
  FICI: <0.14
  MICAntibiotic: 128 µg/mL
PAO200; + compound 2 ≤8.7 μM, PAO200
  MIC of antibiotic + Compound 2 in PAO200: 4 µg/mL
PAO200
  MIC of antibiotic alone in PAO200: 8 µg/mL
PAO750; + compound 2 ≤8.7 μM, PAO750
  MIC of antibiotic + Compound 2 in PAO750: 2 µg/mL
PAO750
  MIC of antibiotic alone in PAO750: 32 µg/mL
[1]
  resistant isolates reaching CLSI clinical breakpoint: four out of ten

## Colistin
WT P. aeruginosa PAO1; WT PAO1
  FICI in the presence of ≤10 μM of 1: 2.00
  MIC of Antibiotics in the presence of ≤10 μM of 1: 2 µg/mL
  FICI in the presence of ≤10 μM of 2: 2.00
  MIC of Antibiotics in the presence of ≤10 μM of 2: 2 µg/mL
  FICI in the presence of ≤10 μM of 3: 1.02
  MIC of Antibiotics in the presence of ≤10 μM of 3: 1 µg/mL
WT P. aeruginosa PAO1; antibiotic + compounds 1-3 at ≤10 μM (≤16 μg/mL), WT PAO1
  FICI with compounds 1-3: 2
WT P. aeruginosa PAO1; [3]
  MIC alone: Colistin (1) μg/ml
PA 91433; PA91433
  MIC of colistin: 4 µg/mL
PA 101243; PA101243
  MIC of colistin: 1024 µg/mL
[2]
  survival of larvae: 30%
